# From PMC6297231 (Nature Communications, 2018)
# Tests used:
# Test in all cases: cells
# [1] = system: 5637; details: 6 h, read-out: AZD5991 6h EC50
# Protocol: (§1) Cells were plated at 3000 cells/well in 384-well white plates in corresponding cell growth media. […] Caspase-3/7 activation was subsequently determined using a Caspase-Glo 3/7 Reagent (Promega) and viability was assayed using the CellTiter-Glo Reagent (Promega) as described in manufacturer’s instructions. Dose–response curves for caspase-3/7 activation and viability were plotted and analyzed (including EC50 and GI50 determination) using GraphPad Prism. Percentage of caspase activation was calculated against the maximum caspase activation value (100%) obtained with a proprietary cell kill control.
# [2] = system: A253; details: Homo sapiens, A253, 6 h, read-out: AZD5991 6h EC50
# Protocol: as §1
# [3] = system: ARH77; details: Homo sapiens, ARH-77, 6 h, read-out: AZD5991 6h EC50
# Protocol: as §1
# [4] = system: COLO829; details: Homo sapiens, COLO-829, 6 h, read-out: AZD5991 6h EC50
# Protocol: as §1
# [5] = system: DOHH2; details: Homo sapiens, DOHH-2, 6 h, read-out: AZD5991 6h EC50
# Protocol: as §1
# [6] = system: EJM; details: Homo sapiens, 6 h, read-out: AZD5991 6h EC50
# Protocol: as §1
# [7] = system: EVSAT; details: Homo sapiens, EVSA-T, 6 h, read-out: AZD5991 6h EC50
# Protocol: as §1
# [8] = system: G361; details: Homo sapiens, G-361, 6 h, read-out: AZD5991 6h EC50
# Protocol: as §1
# [9] = system: GIST 430/654; details: GIST-430/654, 6 h, read-out: AZD5991 6h EC50
# Protocol: as §1
# [10] = system: GRANTA519; details: Homo sapiens, Granta-519, 6 h, read-out: AZD5991 6h EC50
# Protocol: as §1
# [11] = system: H146; details: Homo sapiens, NCI-H146, 6 h, read-out: AZD5991 6h EC50
# Protocol: as §1
# [12] = system: H1703; details: Homo sapiens, NCI-H1703, 6 h, read-out: AZD5991 6h EC50
# Protocol: as §1
# [13] = system: H1975; details: Homo sapiens, NCI-H1975, 6 h, read-out: AZD5991 6h EC50
# Protocol: as §1
# [14] = system: H358; details: Homo sapiens, NCI-H358, 6 h, read-out: AZD5991 6h EC50
# Protocol: as §1
# [15] = system: HBL1; details: HBL1, 6 h, read-out: AZD5991 6h EC50
# Protocol: as §1
# [16] = system: JJN3; details: Homo sapiens, JJN-3, 6 h, read-out: AZD5991 6h EC50
# Protocol: as §1
# [17] = system: KMS12PE; details: Homo sapiens, KMS-12-PE, 6 h, read-out: AZD5991 6h EC50
# Protocol: as §1
# [18] = system: KMS26; details: KMS-26, 6 h, read-out: AZD5991 6h EC50
# Protocol: as §1
# [19] = system: MALME3M; details: Homo sapiens, Malme-3M, 6 h, read-out: AZD5991 6h EC50
# Protocol: as §1
# [20] = system: MDAMB231; details: Homo sapiens, MDA-MB-231, 6 h, read-out: AZD5991 6h EC50
# Protocol: as §1
# [21] = system: MEWO; details: Homo sapiens, 6 h, read-out: AZD5991 6h EC50
# Protocol: as §1
# [22] = system: MONOMAC6; details: Homo sapiens, MONO-MAC-6, 6 h, read-out: AZD5991 6h EC50
# Protocol: as §1
# [23] = system: OCILY19; details: Homo sapiens, OCI-LY19, 6 h, read-out: AZD5991 6h EC50
# Protocol: as §1
# [24] = system: OPM2; details: Homo sapiens, OPM-2, 6 h, read-out: AZD5991 6h EC50
# Protocol: as §1
# [25] = system: OV90; details: Homo sapiens, OV-90, 6 h, read-out: AZD5991 6h EC50
# Protocol: as §1
# [26] = system: OVCAR3; details: Homo sapiens, OVCAR-3, 6 h, read-out: AZD5991 6h EC50
# Protocol: as §1
# [27] = system: Pfeiffer; details: Homo sapiens, 6 h, read-out: AZD5991 6h EC50
# Protocol: as §1
# [28] = system: RCPIWM1; details: 6 h, read-out: AZD5991 6h EC50
# Protocol: as §1
# [29] = system: SBC5; details: Homo sapiens, SBC-5, 6 h, read-out: AZD5991 6h EC50
# Protocol: as §1
# [30] = system: SKBR3; details: Homo sapiens, SK-BR-3, 6 h, read-out: AZD5991 6h EC50
# Protocol: as §1
# [31] = system: SKMEL3; details: Homo sapiens, SK-MEL3, 6 h, read-out: AZD5991 6h EC50
# Protocol: as §1
# [32] = system: SKOV3; details: Homo sapiens, SK-OV-3, 6 h, read-out: AZD5991 6h EC50
# Protocol: as §1
# [33] = system: Sudhl2; details: Homo sapiens, SU-DHL-2, 6 h, read-out: AZD5991 6h EC50
# Protocol: as §1
# [34] = system: ULA; details: 6 h, read-out: AZD5991 6h EC50
# Protocol: as §1
# [35] = system: WSUNHL; details: Homo sapiens, WSU-NHL, 6 h, read-out: AZD5991 6h EC50
# Protocol: as §1
smiles,measurement,setting,value
"Cc1c2c(nn1C)CSCc1cc(n(C)n1)CSc1cc(c3ccccc3c1)OCCCc1c(C(=O)O)n(C)c3c-2c(Cl)ccc13 (atropisomer, axis not shown; (Ra)) [(Ra)-7]",EC50,[1],107 nM
same,EC50,[2],> 30000 nM
same,EC50,[3],23900 nM
same,EC50,[4],> 30000 nM
same,EC50,[5],136 nM
same,EC50,[6],169 nM
same,EC50,[7],160 nM
same,EC50,[8],2440 nM
same,EC50,[9],18600 nM
same,EC50,[10],> 30000 nM
same,EC50,[11],> 30000 nM
same,EC50,[12],801 nM
same,EC50,[13],> 30000 nM
same,EC50,[14],> 30000 nM
same,EC50,[15],25800 nM
same,EC50,[16],223 nM
same,EC50,[17],383 nM
same,EC50,[18],144 nM
same,EC50,[19],> 30000 nM
same,EC50,[20],> 30000 nM
same,EC50,[21],> 30000 nM
same,EC50,[22],268 nM
same,EC50,[23],188 nM
same,EC50,[24],59 nM
same,EC50,[25],> 30000 nM
same,EC50,[26],> 30000 nM
same,EC50,[27],> 30000 nM
same,EC50,[28],39 nM
same,EC50,[29],1120 nM
same,EC50,[30],> 30000 nM
same,EC50,[31],> 30000 nM
same,EC50,[32],> 30000 nM
same,EC50,[33],275 nM
same,EC50,[34],207 nM
same,EC50,[35],512 nM
